Source: PubChem BioAssay AID1918935 (Molecular Pharmacology Branch, DTP, NCI, 2023)
pIC50: −log10 of the molar value. Values joined by “and” are separate entries in the source; they are usually repeats but may differ in a detail not shown here. Equal values may be shown once. Values belong to the compound of their own block, whether it stands above or below them.

System: 324938-238-R-J1-PDC complex spheroid viability
Assay: Anticancer human tumor 324938-238-R-J1-PDC patient-derived bladder carcinoma cell line growth inhibition
Details: for viability, T/C: stronger effect = lower value
From the text: Multicellular complex tumor spheroid response to LSD1 Inhibitor Iadademstat in combination with a variety of drugs and investigational agents in selected tumor cell lines
The current study was undertaken to assess response to LSD1 inhibitors in combination with standard-of-care drugs and investigational agents in solid tumor complex spheroid models as well as in the K-562 leukemia. Complex spheroids include a stromal component modeled by human endothelial cells (HUVEC) and fibroblasts modeled by human mesenchymal stem cells (MSCs). The concentration ranges selected for each drug and investigational agent were based upon clinically achievable concentrations if the clinical Cmax of the agent was known.
Compounds. The drugs and investigational agents used in this study are listed on Table 1. All of the agents used, including staurosporine (NSC755774) and gemcitabine (NSC613327), were obtained from the Developmental Therapeutics Program, NCI. FDA-approved anticancer drugs are available from the NCI at http://dtp.nci.nih.gov/branches/dscb/oncology_drugset_explanation.html. Drugs and investigational agents were >95% pure by proton nuclear magnetic resonance (NMR) and liquid chromatography/mass spectrometry (LC/MS). Stock solutions were prepared at 400x in DMSO, stored at -70 degrees C, and diluted in fresh medium prior to their use. The final concentration of DMSO in cell culture wells never exceeded 0.25% (v/v). The FDA-approved anticancer drug set is available from the Developmental Therapeutics Program at https://dtp.cancer.gov/organization/dscb/obtaining/available_plates.htm. All drugs and investigational agents were tested over a range starting from a high concentration at or near the clinical Cmax and decreasing in half-log increments. If the clinical Cmax for an agent had not been determined, the highest concentration tested was 10 microM.
Cell Lines. The patient-derived cancer cell (PDC) lines: 292921-168-R-J2-PDC, K24384-001-R-PDC, and 521955-158-R2-J5-PDC pancreatic carcinomas, 556581-035-R-J1 ovarian carcinoma, 324938-238-R-J1-PDC, 855422-203-R-J1-PDC and 883617-216-R-J1-PDC urothelial bladder carcinomas, 743489-274-T-PDC renal cell carcinoma, 138582-R-J1 Merkel cell tumor, K60290-347-R-J1 and K57222-313-R-J1-PDC glioblastomas, 653999-131-R-J2-PDC, LG0703-F948-PDC, and 349418-098-R-PDC non-small cell lung carcinomas, 885512-296-R-J2-PDC, 171881-019-R-J1-PDC breast carcinomas and 186277-243-T-J2-PDC and 233499-124-R-J2-PDC colon carcinomas were obtained from the NCI Patient-Derived Models Repository (PDMR, https://pdmr.cancer.gov). The established cell lines NCI/ADR-RES (RRID:CVCL_14520 and OVCAR-5 (RRID:CVCL_1628) ovarian carcinomas, 786-O (RRID:CVCL_1051) and A498 (RRID:CVCL_A498) renal cell carcinoma, NCI-H211 (ATCC, cat. CRL-5824; RRID:CVCL_1529), NCI-H196 (ATCC, cat. CRL-5823, RRID:CVCL_1509), SW 1271 (ATCC, cat. CRL-2177, RRID:CVCL_1716) and NCI-H1876 (ATCC, cat. CRL-5902, RRID:CVCL_1503) small cell lung carcinomas, MDA-MB-231 (RRID:CVCL_0062) and MDA-MB-468 (RRID:CVCL_0419)breast carcinomas (10-12). Pooled donor human umbilical vein endothelial cells (HUVEC, Lonza, cat. CC-2519) and human mesenchymal stem cells (hMSC, Lonza, cat. PT-2501) were purchased from Lonza (Walkersville, MD).
Cell Culture. All cells were maintained in an incubator at 37 degrees C and 5% CO2 with 95% humidity. The PDC lines were cultured according to standard operating procedures established by the NCI PDMR (https://pdmr.cancer.gov). Briefly all PDCs were thawed and cultured in Matrigel-coated flasks prepared with a working solution of 1X Ham's F-12 nutrient mix, without supplementation (Invitrogen, Waltham, MA, cat. 11765054), 100 U/mL penicillin-streptomycin (Invitrogen, cat. 15140122), and 2.5% Matrigel (Corning Inc., Corning, NY, cat. 354248) for the first three passages. […]

[1] = curve of first compound, second compound 0.1 µM
[2] = curve of first compound, second compound 0.316 µM
[3] = curve of first compound, second compound 1 µM
[4] = curve of first compound, second compound 3.16 µM
[5] = curve of first compound, second compound 10 µM
[6] = second compound 0.1 µM, first compound 0.00949 µM
[7] = second compound 0.1 µM, first compound 0.03 µM
[8] = second compound 0.1 µM, first compound 0.0949 µM
[9] = second compound 0.1 µM, first compound 0.3 µM
[10] = second compound 0.1 µM, first compound 0.949 µM
[11] = second compound 0.1 µM, first compound 3 µM
[12] = second compound 0.316 µM, first compound 0.00949 µM
[13] = second compound 0.316 µM, first compound 0.03 µM
[14] = second compound 0.316 µM, first compound 0.0949 µM
[15] = second compound 0.316 µM, first compound 0.3 µM
[16] = second compound 0.316 µM, first compound 0.949 µM
[17] = second compound 0.316 µM, first compound 3 µM
[18] = second compound 1 µM, first compound 0.00949 µM
[19] = second compound 1 µM, first compound 0.03 µM
[20] = second compound 1 µM, first compound 0.0949 µM
[21] = second compound 1 µM, first compound 0.3 µM
[22] = second compound 1 µM, first compound 0.949 µM
[23] = second compound 1 µM, first compound 3 µM
[24] = second compound 3.16 µM, first compound 0.00949 µM
[25] = second compound 3.16 µM, first compound 0.03 µM
[26] = second compound 3.16 µM, first compound 0.0949 µM
[27] = second compound 3.16 µM, first compound 0.3 µM
[28] = second compound 3.16 µM, first compound 0.949 µM
[29] = second compound 3.16 µM, first compound 3 µM
[30] = second compound 10 µM, first compound 0.00949 µM
[31] = second compound 10 µM, first compound 0.03 µM
[32] = second compound 10 µM, first compound 0.0949 µM
[33] = second compound 10 µM, first compound 0.3 µM
[34] = second compound 10 µM, first compound 0.949 µM
[35] = second compound 10 µM, first compound 3 µM
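Further: spheroids also contain HUVEC and human MSCs and agents combined with iadademstat; spheroids exposed to agents for 7 days before readout.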

SMILES: CCN(c1cc(-c2ccc(CN3CCOCC3)cc2)cc(C(=O)NCc2c(C)cc(C)[nH]c2=O)c1C)C1CCOCC1 + NC1CC1c1ccc(-c2cccc(O)c2)cc1
pIC50 [1]: < 5.52 | pIC50 [2]: < 5.52 | pIC50 [3]: < 5.52 | pIC50 [4]: < 5.52 | pIC50 [5]: < 5.52 | viability, T/C [6]: 91.3% | viability, T/C [7]: 91.9% | viability, T/C [8]: 89.8% | viability, T/C [9]: 79.1% | viability, T/C [10]: 89% | viability, T/C [11]: 80.1% | viability, T/C [12]: 84.4% | viability, T/C [13]: 80.1% | viability, T/C [14]: 80.3% | viability, T/C [15]: 81.6% | viability, T/C [16]: 85.1% | viability, T/C [17]: 79.8% | viability, T/C [18]: 74.2% | viability, T/C [19]: 77.2% | viability, T/C [20]: 72.6% | viability, T/C [21]: 72.9% | viability, T/C [22]: 76.9% | viability, T/C [23]: 78.6% | viability, T/C [24]: 79% | viability, T/C [25]: 79.3% | viability, T/C [26]: 77.1% | viability, T/C [27]: 77.5% | viability, T/C [28]: 76.6% | viability, T/C [29]: 74.2% | viability, T/C [30]: 66.4% | viability, T/C [31]: 77% | viability, T/C [32]: 66.8% | viability, T/C [33]: 62.8% | viability, T/C [34]: 66.5% | viability, T/C [35]: 68.1%

pIC50 (curve of compound): < 5.00
SMILES: CC(C)c1c(-c2ccccc2)nc2c(C#N)c[nH]n2c1=O
viability, T/C (compound 0.0316 µM): 98.8% and 110% | viability, T/C (compound 0.1 µM): 108% and 110% | viability, T/C (compound 0.316 µM): 96.5% and 120% | viability, T/C (compound 1 µM): 92.4% and 107% | viability, T/C (compound 3.16 µM): 89.5% and 95.7% | viability, T/C (compound 10 µM): 81.7% and 80.9%

pIC50 (curve of compound): 8.65 and 8.70
SMILES: CC[C@@]1(O)C(=O)OCc2c1cc1n(c2=O)Cc2cc3c(CN(C)C)c(O)ccc3nc2-1
viability, T/C (compound 0.000316 µM): 101% and 94.5% | viability, T/C (compound 0.001 µM): 93% and 83.5% | viability, T/C (compound 0.00316 µM): 31.2% and 27.9% | viability, T/C (compound 0.01 µM): 8.43% and 7.17% | viability, T/C (compound 0.0316 µM): 8.29% and 8.05% | viability, T/C (compound 0.1 µM): 8.03% and 7.71%

SMILES: COc1cc(C2c3cc4c(cc3C(OC3OC5COC(C)OC5C(O)C3O)C3COC(=O)C23)OCO4)cc(OC)c1O (centres undefined) + NC1CC1c1ccc(-c2cccc(O)c2)cc1
pIC50 [1]: 7.21 | pIC50 [2]: 7.22 | pIC50 [3]: 7.34 | pIC50 [4]: 7.33 | pIC50 [5]: 7.42 | viability, T/C [6]: 82.3% | viability, T/C [7]: 74.6% | viability, T/C [8]: 35.1% | viability, T/C [9]: 18.9% | viability, T/C [10]: 20.9% | viability, T/C [11]: 10.6% | viability, T/C [12]: 69.8% | viability, T/C [13]: 67.1% | viability, T/C [14]: 38.4% | viability, T/C [15]: 22.2% | viability, T/C [16]: 17.6% | viability, T/C [17]: 8.16% | viability, T/C [18]: 67.9% | viability, T/C [19]: 60% | viability, T/C [20]: 34% | viability, T/C [21]: 19.6% | viability, T/C [22]: 19.2% | viability, T/C [23]: 7.9% | viability, T/C [24]: 74% | viability, T/C [25]: 59% | viability, T/C [26]: 35.6% | viability, T/C [27]: 23.3% | viability, T/C [28]: 17.3% | viability, T/C [29]: 11.7% | viability, T/C [30]: 73.5% | viability, T/C [31]: 54.8% | viability, T/C [32]: 34.3% | viability, T/C [33]: 27.5% | viability, T/C [34]: 16.8% | viability, T/C [35]: 11.7%
